The nature of data set [1]: Quantum yield of photorelease of acetic acid (ferrioxalate actinometry, 532 nm laser, LC-UV). The class given is physicochemical. The note with it: for Φ (quantum yield of acetic acid release): MeOH, 532 nm ND:YAG laser, LC-UV. As for the experimental part: (§1) The observed substrate release rate as a function of photolysis time is quantified by the quantum efficiency parameter (ϵΦ), which is the product of the extinction coefficient at the irradiation wavelength (ϵ) and the quantum yield (Φ). Extinction coefficients for compounds 1-6 were determined by UV-Vis spectroscopy (see Table 1).
To compute the quantum yields of photorelease (Φ), the flux of a 532 nm laser excitation beam (ND:YAG, 1st harmonic) was determined using potassium ferrioxalate actinometry. Release of acetic acid as a function of laser irradiation time in methanol was followed by quantitative LC/UV methods known in the art. Each quantum yield reported is the average of 3 separate runs. […] Additionally, repeating the quantum yield measurement for compound 2 on a different day with a different laser power setting (in triplicate) gave an identical value for the quantum yield, indicating reproducibility.
All quantum yields were carried out using a liquid-phase potassium ferrioxalate actinometer. The actinometer was prepared by mixing three volumes of 1.5 M K2C2O4 solution with one volume of 1.5 M FeCl3 solution in water, and stirring in complete darkness. The precipitated K3Fe(C2O4)3.3H2O was then recrystallized three times from hot water and dried in a current of warm air. To prepare 1 L of 0.15M K3Fe(C2O4)3.3H2O solution, 73.68 g of the precipitate was dissolved in 800 mL water; 100 mL 1.0 N sulfuric acid was added and filled to the mark with water, again in complete darkness. For all quantitative work the preparation and manipulation of the ferrioxalate solutions must be carried out in a darkroom, using a red light. The light intensity in a photochemical reaction is determined by irradiating ferrioxalate solution and monitoring the subsequent change in absorbance at 510 nm. Irradiation was conducted using 532 nm excitation from a ND:YAG laser source (1st harmonic). Autopipettes were used to ensure all volumes were accurately measured.
For each actinometric measurement a methacrylate cuvette was filled with 3 mL of 0.15 M ferrioxalate solution. The cell was placed in the sample holder, stirred and irradiated for a set period of time (0, 0.25, 0.50, 0.75, 1, 2, 3 minutes). After the allocated irradiation time the solution was transferred into a 25 mL volumetric flask, to which was added in sequence 6 mL of a developer solution (0.05 mol % phenanthroline/0.75 M acetate/0.2 M sulfuric acid), 5 mL 1 M sodium fluoride solution in water. The sample was diluted to 25 mL with water, mixed and allowed to incubate for 10 minutes. After the incubation period was complete, 3 mL of sample was transferred into 1 cm methacrylate cuvette and the absorbance (at 510 nm) read using a spectrophotometer.
Using iron sulfate standard solutions between 1.6×10^−5 M to 9.6×10^−5 M, a standard curve based on absorbance of the ferrioxalate/phenanthroline complex at 510 nm was compiled and the irradiated samples absorbances were compared to yield the concentration iron (II) cleaved via photolysis within the timescale of experiment.
The flux of the laser was calculated the following equations:
[formula] where I is the flux (Einstein/L/s), Δn is the Fe^2+ photogenerated (mole), φ is the quantum yield at 532 nm, V1 is the irradiated volume (mL), and t=irradiation time (seconds);
[formula] where V2 is the volume taken from the irradiated sample (mL), V3 is the volume after dilution for concentration determination (mL), and CT is the concentration of Fe^2+ after dilution (M); and
[formula] where abs is the absorbance at 510 nm, ϵ is the molar absorptivity (M^−1 cm^−1) and l is the path length.
Due to the low absorbance of the potassium ferrioxalate solution at 532 nm, a correction was made to account for an absorbance less than 2 (multiplied the flux by 0.0967).
For each compound, a solution of 1000 ppm was prepared using 1 mg of sample and dissolving in 1 mL methanol. […]

Data set [2] is described as follows: UV-Vis spectroscopy: absorption maximum and extinction coefficient. The format is physicochemical. The method, then:
as §1

Data set [3] in a line: Fluorescence emission of compound solutions. The format is physicochemical. The source says:
FIG. 2 is a plot of normalized fluorescence as a function of wavelength for compounds 1-6 described herein.
See, e.g., Petr Klán et al., Chem. Rev. 113: 119-191 (2013), which is incorporated by reference as if fully set forth herein. Even thought the quantum yields for compounds 1-4 are lower than those for some o-nitrobenzyl photocaged structures, this lower quantum yield is compensated by the much higher extinction coefficients of the BODIPY chromophores compared to the o-nitrobenzyl chromophore, leading to reasonable quantum efficiencies. […] While not being bound by any particular theory, it is plausible that the higher quantum yield of compound 6 occurs because the iodine atoms promote intersystem crossing to a triplet state, which are usually longer lived than […]. Given that the triplet state of the corresponding carbocation is the computed ground state by ˜5 kcal/mol, it is certainly energetically reasonable that heterolysis could occur in the triplet excited state leading to the triplet “carbocation,” similar to the phenacyl photocage derivatives described by Givens et al., Can. J. Chem. 89: 364-384 (2011), which is incorporated by reference as if fully set forth herein.

Another data set relates to GM07373 cells. Kind of data set: Trypan blue exclusion cytotoxicity assay, GM07373. The format is cell-based, bovine. The settings on record: 20 μM, one hour incubation, ± standard deviation from two measurements. As for the experimental part: (§2) Live cell experiments were performed with HeLa (human), GM07373 (bovine) or S2 (Drosophila) cells. HeLa and GM07373 cells were cultured in DMEM medium supplemented with 10% fetal bovine serum, […] (Fisher Scientific, Pittsburgh, Pa.) in a 37° C. water jacketed CO2 incubator (Thermo Scientific, Waltham, Mass.). HeLa and GM07373 cells were sub-cultured using 0.25% (w/v) trypsin-EDTA (Life Technology, Carlsbad, Calif.) solution every two days. Cells were sub-cultured onto custom-made glass bottom culture dishes two days before the microscopy experiment. On the day of the microscopy experiment, the growth media was replaced with 20 μM compound 12b in serum-free DMEM for one hour. Cells were rinsed with the imaging medium (pH=7.2, 155 mM NaCl, 5 mM KCl, 2 mM CaCl2, 1 mM MgCl2, 2 mM NaH2PO4, 10 mM HEPES and 10 mM Glucose) prior to collecting microscopy images. […]
(§3) HeLa, GM07373 or S2 cells were incubated with 20 μM of the compound 12b for an hour. Cytotoxicity of the compound was measured using trypan blue exclusion assays. […] The number of viable cells that excluded the dye was counted using a hemacytometer (Hausser Bright-Line, Hausser scientific, Horsham, Pa.) and an optical microscope.

The subject of a further data set is HeLa cells. Kind of data set: Trypan blue exclusion cytotoxicity assay, HeLa. The format is cell-based, human. The note with it: 20 μM, one hour incubation, ± standard deviation from two measurements. The method, then:
as §2, §3

A further data set deals with S2 cells. The data set is described as follows: Trypan blue exclusion cytotoxicity assay, S2. The class given is cell-based, Drosophila. The settings on record: 20 μM, one hour incubation, ± standard deviation from two measurements. As for the experimental part: as §2, §3

In the case of `COc1ccc(/C=C/c2cc(C)c3n2[B-](F)(F)[N+]2=C(C)C=C(C)C2=C3COC(C)=O)cc1` [Compound 7, 8-Acetoxymethyl-3-(4-methoxy)styryl-1,5,7-trimethyl pyrromethene fluoroborate], the “εΦ (quantum efficiency)” value in data set [1] (Table 2) turned out to be 6.0 M⁻¹ cm⁻¹. Also, the “Φ (quantum yield of acetic acid release)” value in data set [1] (Table 2, average of 3 runs) is given as 9.8 ×10^−4. In data set [2] (Table 2), this molecule yielded a ε of 61000 M⁻¹ cm⁻¹ and a λmax of 586 nm. Also, the λem in data set [3] (Table 2) is listed as 607 nm.
As to “3,5-Bis(4-(1,4,7,10-tetraoxaundecyl)styryl-1,7-dimethyl-8-(4-nitrobenzoato)pyrromethene fluoroborate [Compound 12b]”, the entries for the “% of Viable cells” value in the data set with GM07373 cells, in the data set with HeLa cells and in the data set on S2 cells were 92 ± 5%, 92 ± 5% and 93 ± 2%, respectively.
As to `CC(=O)OCC1=C2C(C)=CC(C=Cc3ccccc3)=[N+]2[B-](F)(F)n2c(C=Cc3ccccc3)cc(C)c21` [Compound 9, 8-Acetoxymethyl-3,5-bisstyryl-1,7-dimethyl pyrromethene fluoroborate], the “εΦ (quantum efficiency)” value in data set [1] (Table 2) is 2.9 M⁻¹ cm⁻¹. Moreover, the “Φ (quantum yield of acetic acid release)” value in data set [1] (Table 2, average of 3 runs) is listed as 4.5 ×10^−4. In data set [2] (Table 2), this molecule displayed a ε of 65000 M⁻¹ cm⁻¹ and a λmax of 640 nm. The same molecule registered a λem in data set [3] (Table 2) of 656 nm.
In the case of `COc1ccc(/C=C/C2=[N+]3C(=C(COC(C)=O)c4c(C)cc(/C=C/c5ccc(OC)cc5)n4[B-]3(F)F)C(C)=C2)cc1` [Compound 10a, 8-Acetoxymethyl-3,5-bis(4-methoxy)styryl-1,7-dimethyl pyrromethene fluoroborate], the “εΦ (quantum efficiency)” value in data set [1] (Table 2) turned out to be 2.7 M⁻¹ cm⁻¹. In data set [1] (Table 2, average of 3 runs), the “Φ (quantum yield of acetic acid release)” value is reported as 4.1 ×10^−4. In data set [2] (Table 2), this molecule returned a ε of 65000 M⁻¹ cm⁻¹ and a λmax of 661 nm. In data set [3] (Table 2), this molecule came in with a λem of 684 nm.
In data set [2] (Table 2), `COCCOCCOCCOc1ccc(C=CC2=[N+]3C(=C(CO)c4c(C)cc(C=Cc5ccc(OCCOCCOCCOC)cc5)n4[B-]3(F)F)C(C)=C2)cc1` [Compound 11b, 3,5-Bis(4-(1,4,7,10-tetraoxaundecyl)styryl-1,7-dimethyl-8-hydroxymethylpyrromethene fluoroborate] yielded a ε of 120000 M⁻¹ cm⁻¹ and a λmax of 667 nm.
Regarding `CC(=O)OCC1=C2C(C)=CC(C)=[N+]2[B-](F)(F)n2c(C=Cc3ccc(N(C)C)cc3)cc(C)c21` [Compound 8, 8-Acetoxymethyl-3-(4-dimethylamino)styryl-1,5,7-trimethyl pyrromethene fluoroborate], the “εΦ (quantum efficiency)” value in data set [1] (Table 2) is 4.1 M⁻¹ cm⁻¹. The “Φ (quantum yield of acetic acid release)” value in data set [1] (Table 2, average of 3 runs) was 6.9 ×10^−4. Further, in data set [2] (Table 2), the ε was found to be 60000 M⁻¹ cm⁻¹ and the λmax stood at 633 nm. In data set [3] (Table 2), this molecule came in with a λem of 650 nm.
Consider “8-Acetoxymethyl-1,3,5,7-tetramethyl pyrromethene fluoroborate [Compound 2]”, for which the “Φ (quantum yield of photorelease)” value in data set [1] (Table 1, acetic acid release, 532 nm laser, methanol, average of 3 runs) is recorded as 9.9 ×10^−4. The “εΦ (quantum efficiency)” value was found to be 70 M⁻¹ cm⁻¹ in data set [1] (Table 1, product of extinction coefficient and quantum yield); 70 M⁻¹ cm⁻¹ in data set [1] (Table 2). The “Φ (quantum yield of acetic acid release)” value in data set [1] (Table 2, average of 3 runs) is recorded as 9.9 ×10^−4. Further, the λmax in data set [2] (Table 1) and in data set [2] (Table 2) was 515 nm throughout. The ε in data set [2] (Table 1, extinction coefficient by UV-Vis spectroscopy) was 71000 M⁻¹ cm⁻¹; in data set [2] (Table 2), 71000 M⁻¹ cm⁻¹. Besides, the λem in data set [3] (Table 1) and in data set [3] (Table 2) was 526 nm each time.

Source of the values: patent publication US9957498B2, “Photoremovable protecting groups and uses thereof” (Iowa State University Research Foundation, Inc., priority 2015, dated 2018).
